Laboratory results published in EPA's ToxValDB 9.5 (doi:10.2903/j.efsa.2012.2927).
Counter-ions that a name gives are not always drawn.

System: Rattus norvegicus
Details: oral, no effects
[1] = chronic, duration: 17 weeks, gavage
[2] = subchronic, duration: 90 days, diet
[3] = subchronic, duration: 90 days, drinking water

Q: Which results are given for `CCC(CC)C(=O)O` [2-Ethylbutyric acid]?
A: NOAEL [1]: > 1000 mg/kg-day; NOAEL [2]: > 2500 mg/kg-day; NOAEL [3]: > 1450 mg/kg-day; NOAEL (subchronic, duration: 90 days): > 219 mg/kg-day

Q: Which results are given for `CC(C)CO` [2-Methyl-1-propanol]?
A: NOAEL [1]: > 1000 mg/kg-day; NOAEL [2]: > 2500 mg/kg-day; NOAEL [3]: > 1450 mg/kg-day; NOAEL (subchronic, duration: 90 days): > 219 mg/kg-day

Q: Which NOAEL [1] does the source give for `CCC(C)C=O` (stereo unspecified) [2-Methylbutanal] here?
A: The NOAEL was > 1000 mg/kg-day.

Q: And the NOAEL [2]?
A: Its NOAEL is > 2500 mg/kg-day.

Q: And the NOAEL [3]?
A: Its NOAEL is > 1450 mg/kg-day.

Q: What about the NOAEL (subchronic, duration: 90 days) of the same compound?
A: Its NOAEL is > 219 mg/kg-day.

Q: `CCC(C)COC(C)=O` (stereo unspecified) [2-Methylbutyl acetate] was tested. Which NOAEL [1] did it give?
A: The NOAEL was > 1000 mg/kg-day.

Q: What about the NOAEL [2] of the same compound?
A: Its NOAEL is > 2500 mg/kg-day.

Q: What about the NOAEL [3] of the same compound?
A: Its NOAEL is > 1450 mg/kg-day.

Q: What about the NOAEL (subchronic, duration: 90 days) of the same compound?
A: The NOAEL was > 219 mg/kg-day.

Q: How did the NOAEL [1] turn out when `CCC(C)COC(=O)CC(C)C` (stereo unspecified) [2-Methylbutyl isovalerate] was run?
A: Its NOAEL is > 1000 mg/kg-day.

Q: What about the NOAEL [2] of the same compound?
A: The NOAEL was > 2500 mg/kg-day.

Q: What about the NOAEL [3] of the same compound?
A: The NOAEL was > 1450 mg/kg-day.

Q: What about the NOAEL (subchronic, duration: 90 days) of the same compound?
A: Its NOAEL is > 219 mg/kg-day.

Q: How did the NOAEL [1] turn out when `CCCC(C)C(=O)O` (stereo unspecified) [2-Methylpentanoic acid] was run?
A: Its NOAEL is > 1000 mg/kg-day.

Q: And the NOAEL [2]?
A: The NOAEL was > 2500 mg/kg-day.

Q: What about the NOAEL [3] of the same compound?
A: The NOAEL was > 1450 mg/kg-day.

Q: And the NOAEL (subchronic, duration: 90 days)?
A: Its NOAEL is > 219 mg/kg-day.

Q: With `CC(C)C(=O)O` [2-Methylpropanoic acid] as the compound, how does the NOAEL [1] read?
A: The NOAEL was > 1000 mg/kg-day.

Q: And the NOAEL [2]?
A: The NOAEL was > 2500 mg/kg-day.

Q: And the NOAEL [3]?
A: Its NOAEL is > 1450 mg/kg-day.

Q: What about the NOAEL (subchronic, duration: 90 days) of the same compound?
A: The NOAEL was > 219 mg/kg-day.

Q: Which results are given for `CC(C)CC=O` [3-Methylbutanal]?
A: NOAEL [1]: > 1000 mg/kg-day; NOAEL [2]: > 2500 mg/kg-day; NOAEL [3]: > 1450 mg/kg-day; NOAEL (subchronic, duration: 90 days): > 219 mg/kg-day

Q: Which results are given for `CC(=O)OCCC(C)C` [3-Methylbutyl acetate]?
A: NOAEL [1]: > 1000 mg/kg-day; NOAEL [2]: > 2500 mg/kg-day; NOAEL [3]: > 1450 mg/kg-day; NOAEL (subchronic, duration: 90 days): > 219 mg/kg-day

Q: How did the NOAEL [1] turn out when `CCC(=O)OCCC(C)C` [3-Methylbutyl propanoate] was run?
A: Its NOAEL is > 1000 mg/kg-day.

Q: And the NOAEL [2]?
A: Its NOAEL is > 2500 mg/kg-day.

Q: And the NOAEL [3]?
A: The NOAEL was > 1450 mg/kg-day.

Q: What about the NOAEL (subchronic, duration: 90 days) of the same compound?
A: Its NOAEL is > 219 mg/kg-day.

Q: `CCC(C)C(=O)OCCC(C)C` (stereo unspecified) [Butanoic acid, 2-methyl-, 3-methylbutyl ester] was tested. Which NOAEL [1] did it give?
A: The NOAEL was > 1000 mg/kg-day.

Q: And the NOAEL [2]?
A: Its NOAEL is > 2500 mg/kg-day.

Q: What about the NOAEL [3] of the same compound?
A: The NOAEL was > 1450 mg/kg-day.

Q: What about the NOAEL (subchronic, duration: 90 days) of the same compound?
A: The NOAEL was > 219 mg/kg-day.

Q: For `CCCC(=O)OCC(C)CC` (stereo unspecified) [Butanoic acid, 2-methylbutyl ester], which NOAEL [1] is on record?
A: The NOAEL was > 1000 mg/kg-day.

Q: What about the NOAEL [2] of the same compound?
A: The NOAEL was > 2500 mg/kg-day.

Q: And the NOAEL [3]?
A: Its NOAEL is > 1450 mg/kg-day.

Q: And the NOAEL (subchronic, duration: 90 days)?
A: The NOAEL was > 219 mg/kg-day.

Q: How did the NOAEL [1] turn out when `CC(C)COC(=O)CC(C)C` [Butanoic acid, 3-methyl-, 2-methylpropyl ester] was run?
A: The NOAEL was > 1000 mg/kg-day.

Q: What about the NOAEL [2] of the same compound?
A: The NOAEL was > 2500 mg/kg-day.

Q: And the NOAEL [3]?
A: Its NOAEL is > 1450 mg/kg-day.

Q: What about the NOAEL (subchronic, duration: 90 days) of the same compound?
A: The NOAEL was > 219 mg/kg-day.

Q: For `CCCC(=O)OCC(COC(=O)CCC)OC(=O)CCC` [Glycerol tributyrate], which NOAEL [1] is on record?
A: Its NOAEL is > 1000 mg/kg-day.

Q: And the NOAEL [2]?
A: Its NOAEL is > 2500 mg/kg-day.

Q: What about the NOAEL [3] of the same compound?
A: Its NOAEL is > 1450 mg/kg-day.

Q: And the NOAEL (subchronic, duration: 90 days)?
A: Its NOAEL is > 219 mg/kg-day.

Q: Which NOAEL [1] does the source give for `CCCCCC(C)C(=O)O` (stereo unspecified) [Heptanoic acid, 2-methyl-] here?
A: Its NOAEL is > 1000 mg/kg-day.

Q: And the NOAEL [2]?
A: Its NOAEL is > 2500 mg/kg-day.

Q: What about the NOAEL [3] of the same compound?
A: Its NOAEL is > 1450 mg/kg-day.

Q: And the NOAEL (subchronic, duration: 90 days)?
A: Its NOAEL is > 219 mg/kg-day.

Q: For `CC(C)CCOC=O` [Isoamyl formate], which NOAEL [1] is on record?
A: Its NOAEL is > 1000 mg/kg-day.

Q: What about the NOAEL [2] of the same compound?
A: The NOAEL was > 2500 mg/kg-day.

Q: What about the NOAEL [3] of the same compound?
A: The NOAEL was > 1450 mg/kg-day.

Q: And the NOAEL (subchronic, duration: 90 days)?
A: The NOAEL was > 219 mg/kg-day.

Q: Which NOAEL [1] does the source give for `CC(=O)OCC(C)C` [Isobutyl acetate] here?
A: Its NOAEL is > 1000 mg/kg-day.

Q: What about the NOAEL [2] of the same compound?
A: The NOAEL was > 2500 mg/kg-day.

Q: What about the NOAEL [3] of the same compound?
A: The NOAEL was > 1450 mg/kg-day.

Q: What about the NOAEL (subchronic, duration: 90 days) of the same compound?
A: Its NOAEL is > 219 mg/kg-day.

Q: With `CCCC(=O)OCC(C)C` [Isobutyl butyrate] as the compound, how does the NOAEL [1] read?
A: Its NOAEL is > 1000 mg/kg-day.

Q: What about the NOAEL [2] of the same compound?
A: Its NOAEL is > 2500 mg/kg-day.

Q: What about the NOAEL [3] of the same compound?
A: Its NOAEL is > 1450 mg/kg-day.

Q: And the NOAEL (subchronic, duration: 90 days)?
A: Its NOAEL is > 219 mg/kg-day.

Q: With `CC(C)COC(=O)C(C)C` [Isobutyl isobutyrate] as the compound, how does the NOAEL [1] read?
A: The NOAEL was > 1000 mg/kg-day.

Q: What about the NOAEL [2] of the same compound?
A: The NOAEL was > 2500 mg/kg-day.

Q: What about the NOAEL [3] of the same compound?
A: The NOAEL was > 1450 mg/kg-day.

Q: What about the NOAEL (subchronic, duration: 90 days) of the same compound?
A: Its NOAEL is > 219 mg/kg-day.

Q: `CC(C)CCO` [Isopentyl alcohol] was tested. Which NOAEL [1] did it give?
A: The NOAEL was > 1000 mg/kg-day.

Q: And the NOAEL [2]?
A: The NOAEL was > 2500 mg/kg-day.

Q: What about the NOAEL [3] of the same compound?
A: Its NOAEL is > 1450 mg/kg-day.

Q: What about the NOAEL (subchronic, duration: 90 days) of the same compound?
A: The NOAEL was > 219 mg/kg-day.

Q: Which NOAEL [1] does the source give for `CCCC(=O)OCCC(C)C` [Isopentyl butyrate] here?
A: Its NOAEL is > 1000 mg/kg-day.

Q: And the NOAEL [2]?
A: Its NOAEL is > 2500 mg/kg-day.

Q: What about the NOAEL [3] of the same compound?
A: Its NOAEL is > 1450 mg/kg-day.

Q: And the NOAEL (subchronic, duration: 90 days)?
A: Its NOAEL is > 219 mg/kg-day.

Q: What does the source list for `CC(C)CCOC(=O)C(C)C` [Isopentyl isobutyrate]?
A: NOAEL [1]: > 1000 mg/kg-day; NOAEL [2]: > 2500 mg/kg-day; NOAEL [3]: > 1450 mg/kg-day; NOAEL (subchronic, duration: 90 days): > 219 mg/kg-day

Q: What does the source list for `CC(C)CC(=O)O` [Isovaleric acid]?
A: NOAEL [1]: > 1000 mg/kg-day; NOAEL [2]: > 2500 mg/kg-day; NOAEL [3]: > 1450 mg/kg-day; NOAEL (subchronic, duration: 90 days): > 219 mg/kg-day

Q: Which NOAEL [1] does the source give for `CCCCC(C)CCC(=O)O` (stereo unspecified) [Octanoic acid, 4-methyl-] here?
A: Its NOAEL is > 1000 mg/kg-day.

Q: And the NOAEL [2]?
A: The NOAEL was > 2500 mg/kg-day.

Q: And the NOAEL [3]?
A: The NOAEL was > 1450 mg/kg-day.

Q: What about the NOAEL (subchronic, duration: 90 days) of the same compound?
A: The NOAEL was > 219 mg/kg-day.
